# Patent publication US7951796B2 (priority 2005, dated 2011)
# How the values were obtained:
# [1] = system: cellular cholesterol in ScN2a cells; format: cell-based, mouse
# [2] = system: RML scrapie prion infection; format: in vivo, mouse (transgene TG 20); settings: TG 20 mice
SMILES,cholesterol distribution (filipin staining) [1],"time to death of prion disease ([2]; intracerebral RML scrapie, 2 mg per mouse by gavage three times weekly for eight weeks, untreated control 92±4 days) [days]","lengthening of the survival time ([2]; versus untreated control, Student's t test p<0.0001) [%]"
"CCN(CC)CCCC(C)Nc1c2ccc(Cl)cc2nc2ccc(OC)cc12 (stereo not shown) [Quinacrin, reference compound]",redistribution was revealed to intracellular compartments,–,–
"COc1ccc2nc3cc(Cl)ccc3c(NCCCCN3CCN(CCCN4c5ccccc5CCc5ccccc54)CC3)c2c1 [compound (10), (6-chlor-2-methoxy-acridine-9-yl)-(4-{4-[3-(10,11-dihydro-dibenzo[b,f]azepine-5-yl)-propyl]-piperazine-1-yl}-butyl)-amine]",redistribution was revealed to intracellular compartments,100 ± 5,10
